Assay results published in patent US10265274B2, “Formulations and kits for forming bioadhesive matrices” (Technology Innovation Momentum Fund (Israel) Limited …, priority 2012, dated 2019).
Where a name gives a salt, the structure may show the parent alone.

Tests used:
[1] = cited from earlier work
Fibroblast cells = experiment: Cytotoxicity test, Alamar Blue reduction; format: cell-based; details: fibroblasts, 24 hours, relative to control cells
Protocol: Fibroblast cells (14th passage) were thawed and cultured in […] flasks with culture medium at 37° C., humidified atmosphere and 5% CO2. The cells were cultured with modified Eagle's medium supplemented with 10% fetal bovine serum, 1% L-glutamine and 0.1% penicillin-streptomycin-nystatin. At confluence of 70% (at passages 16-19) the cells were separated using incubation for 3 minutes with 1 ml trypsin A, the free cells were added to the culture medium and seeded in a 6 well plate.
When confluence of 70% was reached the medium was replaced by 2 ml of medium containing 10% v/v Alamar blue for 4 hours of incubation. Thereafter, two 100 μL samples were taken from each well and inserted to a 96 well plate. The plate was inserted for analysis at a spectrophotometer (Spectra max 340 PC384, Molecular Devices) at 570 and 600 nm.
Two experiments were carried out, at first each component of the bioadhesive were inserted separately to a test tube containing 4 ml medium and incubated for 24 hours and then that medium was added to the cells instead of the medium containing Alamar Blue. In the second experiment, the medium with Alamar Blue was replaced with 4 ml of fresh medium and 0.1 ml of bioadhesive was added to the medium and incubated for 24 hours followed by another reading using Alamar Blue.
The reduction of Alamar Blue's absorption was calculated using the manufacturer's protocol, namely Alamar Blue reduction=(ε600A^t570−ε570A^t600)/(ε570A^c600−ε600A^c570), wherein ε570 and ε600 are the molar extinction coefficients of oxidized Alamar Blue at 570 nm and 600 nm respectively, A^t and Ac are the absorbance of test and control respectively at 570 nm and 600 nm respectively, whereas the control is taken as the medium with Alamar blue but without any cells.

Row | SMILES | isoelectric points (pKa) [1] | cell viability (Fibroblast cells; aqueous drug solution 2% w/v) | cell viability (Fibroblast cells; aqueous drug solution 3% w/v)
1 | CCCCN1CCCCC1C(=O)Nc1c(C)cccc1C (centres unmarked) [bupivacaine, Bupivacaine hydrochloride] | 8.1-8.4 | 67.6% | 58.8%
2 | CC(C)Cc1ccc(C(C)C(=O)[O-])cc1.[Na+] (centres unmarked) [ibuprofen, Ibuprofen sodium salt] |  | 93.5% | 79.7%
